For data set [1] the following is noted: normalized: phenylalanine 100, glycine 0; cited from earlier work.
The conditions of data set [2]: cited from earlier work.
Data set [3] relates to PKA. Briefly: Fluorescence of micelle with signal molecule upon treatment with protein kinase (Table 19). It counts as biochemical. The note with it: Conc 8 uM; for RFUs at 10 uL (final): after kinase; for RFUs at 10 uL (initial): before kinase. An excerpt:
(§1) Table 19 also provides the specific protein kinase that can be used to modify each of these signal molecules, as well as the fluorescence observed with a micelle comprising the signal molecules upon treatment with the specified protein kinase.

Data set [4] has as its system Akt. Described as above. The note with it: Conc 8 uM. The format is biochemical.
Source text: as §1

In data set [5] the test system is PKC. The data set is described as above. The format is biochemical. The following applies: for RFUs at 10 uL (final): after kinase; for RFUs at 10 uL (initial): before kinase.
Source text: as §1

Data set [6] deals with Src, lyn, fyn. The description is as above. The note with it: Conc 8 uM. The format is biochemical.
Source text: as §1

Data set [7] deals with MAPKAP2 (Homo sapiens, UniProt P49137). The description is as above. The following applies: Conc 8 uM. It counts as biochemical.
MAPKAP2, sequence (P49137 whole entry): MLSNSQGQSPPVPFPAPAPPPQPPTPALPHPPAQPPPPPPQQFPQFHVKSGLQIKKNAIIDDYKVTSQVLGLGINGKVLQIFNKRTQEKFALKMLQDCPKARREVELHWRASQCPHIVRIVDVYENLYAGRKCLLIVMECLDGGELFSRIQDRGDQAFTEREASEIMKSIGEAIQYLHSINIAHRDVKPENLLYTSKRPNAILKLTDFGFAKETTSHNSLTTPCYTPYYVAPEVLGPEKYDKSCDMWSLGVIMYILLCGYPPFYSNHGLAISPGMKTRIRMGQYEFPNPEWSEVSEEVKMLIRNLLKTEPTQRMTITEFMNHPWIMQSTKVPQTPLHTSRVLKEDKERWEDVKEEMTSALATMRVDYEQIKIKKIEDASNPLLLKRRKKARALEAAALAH
Source text: as §1

Data set [8] has as its system MAPK. The data set is described as above. It counts as biochemical. The following applies: Conc 16 uM.
Source text: as §1

The star is where a group is joined. K(dye2) = lysine labeled with dye2 = 5-carboxy-2′,7′-dipyridyl-sulfonefluorescein; K(tet) = lysine labeled with tet = 2′,7′,4,7-tetrachloro-5-carboxy fluorescein; Heptadecanoyl = CCCCCCCCCCCCCCCCC(=O)*; Pentadecanoyl = CCCCCCCCCCCCCCC(=O)*; Palmitoyl = CCCCCCCCCCCCCCCC(=O)*; Tridecanoyl = CCCCCCCCCCCCC(=O)*; AEEA = NCCOCCOCC(=O)O

As to `O=C(O)[C@@H]1CCCN1` [Proline (P), Proline], the “Monera et al. Hydrophobicity (pH 2)” value in data set [1] was −46.
Regarding `N[C@@H](CO)C(=O)O` [Serine (S), Serine], the “Side chain pKa” value in data set [2] is “˜13”.
Consider `C[C@@H](O)[C@H](N)C(=O)O` [Threonine (T), Threonine], for which, in data set [2], the “Side chain pKa” value is reported as “˜13”.
In the case of “C13-K(dye2)-LRRASLG-NH2: peptide-dye signal molecule for PKA; dye2 = 5-carboxy-2′,7′-dipyridyl-sulfonefluorescein, C-terminus amidated ({Tridecanoyl-K(dye2)}-LRRASLG-NH2)”, in data set [3], the Fold increase came to 5x, the “RFUs at 10 uL (final)” value was found to be 5000 RFU and the “RFUs at 10 uL (initial)” value is reported as 1000 RFU.
In the same order, the values of “C13-OOOK(dye2)-LRRASLG-NH2: peptide-dye signal molecule for PKA; O = 2-aminoethoxy-2-ethoxyacetyl linker, dye2 = 5-carboxy-2′,7′-dipyridyl-sulfonefluorescein ({Tridecanoyl-AEEA-AEEA-AEEA-K(dye2)}-LRRASLG-NH2)” are 5x, 5000 RFU and 1000 RFU.
As to “C15-OOOK(dye2)RPRTSSF-NH2: peptide-dye signal molecule for Akt; dye2 = 5-carboxy-2′,7′-dipyridyl-sulfonefluorescein ({Pentadecanoyl-AEEA-AEEA-AEEA-K(dye2)}-RPRTSSF-NH2)”, the Fold increase in data set [4] was 4x. For the same compound, the “RFUs at 10 uL (final)” value in data set [4] (after kinase) is on record as 7500 RFU. Further, in data set [4] (before kinase), the “RFUs at 10 uL (initial)” value is recorded as 1500 RFU.
On to “C16-OOOK(dye2)-RREGSFR-NH2: peptide-dye signal molecule for PKC; O = 2-aminoethoxy-2-ethoxyacetyl linker, dye2 = 5-carboxy-2′,7′-dipyridyl-sulfonefluorescein ({Palmitoyl-AEEA-AEEA-AEEA-K(dye2)}-RREGSFR-NH2)”, for which, in data set [5] (Conc 4 uM), the Fold increase amounted to 4.5x, the “RFUs at 10 uL (final)” value was found to be 3000 RFU and the “RFUs at 10 uL (initial)” value was determined as 650 RFU.
On to “C16-OOOK(dye2)RIGEGTYGVVRR-NH2: peptide-dye signal molecule for Src, lyn, fyn; dye2 = 5-carboxy-2′,7′-dipyridyl-sulfonefluorescein ({Palmitoyl-AEEA-AEEA-AEEA-K(dye2)}-RIGEGTYGVVRR-NH2)”, for which the Fold increase in data set [6] was 6.5x. For the same compound, in data set [6] (after kinase), the “RFUs at 10 uL (final)” value is reported as 6500 RFU. Also, the “RFUs at 10 uL (initial)” value in data set [6] (before kinase) worked out at 1000 RFU.
The compound “C16-OOOK(dye2)RLNRTLSV-NH2: peptide-dye signal molecule for MAPKAP2; dye2 = 5-carboxy-2′,7′-dipyridyl-sulfonefluorescein ({Palmitoyl-AEEA-AEEA-AEEA-K(dye2)}-RLNRTLSV-NH2)” displayed a Fold increase in data set [7] of 4x. Further, the “RFUs at 10 uL (final)” value in data set [7] (after kinase) is listed as 3200 RFU. The “RFUs at 10 uL (initial)” value in data set [7] (before kinase) is 800 RFU.
“C17-OOOK(dye2)PRTPGGR-NH2: peptide-dye signal molecule for MAPK; dye2 = 5-carboxy-2′,7′-dipyridyl-sulfonefluorescein ({Heptadecanoyl-AEEA-AEEA-AEEA-K(dye2)}-PRTPGGR-NH2)”: in data set [8], the Fold increase was 5x. For the same compound, in data set [8] (after kinase), the “RFUs at 10 uL (final)” value was 5700 RFU. Besides, the “RFUs at 10 uL (initial)” value in data set [8] (before kinase) amounted to 1100 RFU.
On to “C17-OOOK(tet)-RQGSFRA-NH2: peptide-dye signal molecule for PKC; tet = 2′,7′,4,7-tetachloro-5-carboxy fluorescein ({Heptadecanoyl-AEEA-AEEA-AEEA-K(tet)}-RQGSFRA-NH2)”, for which, in data set [5] (Conc 6 uM), the Fold increase is recorded as 7x, the “RFUs at 10 uL (final)” value is reported as 4900 RFU and the “RFUs at 10 uL (initial)” value is listed as 700 RFU.
